Assay results from PMC4770715, “LIM kinase inhibitors disrupt mitotic microtubule organization and impair tumor cell proliferation” (Oncotarget, 2015).

Key:
Assay in all cases: biochemical
Set-up in all cases: KINOMEscan active-site competition binding, percent of control (100 = no competition)
Conditions in all cases: competition binding, percent control
ERN1 = ERN1 (Homo sapiens, UniProt O75460)
RIPK2 = RIPK2 (Homo sapiens, UniProt O43353)
DAPK1 = DAPK1 (Homo sapiens, UniProt P53355)
CLK3 = CLK3 (Homo sapiens, UniProt P49761)
[1] = molecular target: T1, RSK3(Kin.Dom.2-C-terminal) (Homo sapiens, UniProt Q15349)
T1 construct: gene RPS6KA2; Kin.Dom.2-C-terminal

PYK2 = molecular target: T2, PYK2 (Homo sapiens, UniProt Q14289)
T2 construct: gene PTK2B
T2 sequence (Q14289 whole entry): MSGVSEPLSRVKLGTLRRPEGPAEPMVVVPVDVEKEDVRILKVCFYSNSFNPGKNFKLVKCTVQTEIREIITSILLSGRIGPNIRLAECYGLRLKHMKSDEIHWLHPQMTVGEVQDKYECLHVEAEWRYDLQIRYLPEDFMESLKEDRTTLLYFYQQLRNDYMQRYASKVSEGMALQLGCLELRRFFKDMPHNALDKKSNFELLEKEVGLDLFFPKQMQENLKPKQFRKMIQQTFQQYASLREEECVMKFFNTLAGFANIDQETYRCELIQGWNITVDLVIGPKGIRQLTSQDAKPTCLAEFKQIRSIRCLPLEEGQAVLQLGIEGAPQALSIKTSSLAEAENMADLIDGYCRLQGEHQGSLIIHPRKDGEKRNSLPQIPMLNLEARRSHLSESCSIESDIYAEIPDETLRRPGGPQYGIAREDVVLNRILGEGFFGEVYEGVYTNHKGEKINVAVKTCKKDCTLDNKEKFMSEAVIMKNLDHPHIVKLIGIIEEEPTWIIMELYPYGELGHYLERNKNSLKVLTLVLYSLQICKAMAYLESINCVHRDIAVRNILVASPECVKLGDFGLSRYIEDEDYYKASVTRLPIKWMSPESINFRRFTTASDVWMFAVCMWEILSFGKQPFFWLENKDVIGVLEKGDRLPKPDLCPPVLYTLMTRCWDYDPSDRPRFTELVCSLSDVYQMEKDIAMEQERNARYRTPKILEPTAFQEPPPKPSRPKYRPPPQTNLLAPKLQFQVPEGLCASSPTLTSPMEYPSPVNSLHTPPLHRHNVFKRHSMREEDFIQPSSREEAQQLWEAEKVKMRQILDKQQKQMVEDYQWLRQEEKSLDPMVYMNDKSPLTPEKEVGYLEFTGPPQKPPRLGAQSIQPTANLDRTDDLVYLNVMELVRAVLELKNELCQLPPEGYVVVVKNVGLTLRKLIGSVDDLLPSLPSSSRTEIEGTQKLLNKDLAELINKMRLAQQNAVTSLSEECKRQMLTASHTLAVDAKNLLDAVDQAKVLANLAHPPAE

[2] = molecular target: T3, RPS6KA5(Kin.Dom.1-N-terminal) (Homo sapiens, UniProt O75582)
T3 construct: Kin.Dom.1-N-terminal

CLK4 = CLK4 (Homo sapiens, UniProt Q9HAZ1)
ERK8 = molecular target: T4, ERK8 (Homo sapiens, UniProt Q8TD08)
T4 construct: gene MAPK15
T4 sequence (Q8TD08 whole entry): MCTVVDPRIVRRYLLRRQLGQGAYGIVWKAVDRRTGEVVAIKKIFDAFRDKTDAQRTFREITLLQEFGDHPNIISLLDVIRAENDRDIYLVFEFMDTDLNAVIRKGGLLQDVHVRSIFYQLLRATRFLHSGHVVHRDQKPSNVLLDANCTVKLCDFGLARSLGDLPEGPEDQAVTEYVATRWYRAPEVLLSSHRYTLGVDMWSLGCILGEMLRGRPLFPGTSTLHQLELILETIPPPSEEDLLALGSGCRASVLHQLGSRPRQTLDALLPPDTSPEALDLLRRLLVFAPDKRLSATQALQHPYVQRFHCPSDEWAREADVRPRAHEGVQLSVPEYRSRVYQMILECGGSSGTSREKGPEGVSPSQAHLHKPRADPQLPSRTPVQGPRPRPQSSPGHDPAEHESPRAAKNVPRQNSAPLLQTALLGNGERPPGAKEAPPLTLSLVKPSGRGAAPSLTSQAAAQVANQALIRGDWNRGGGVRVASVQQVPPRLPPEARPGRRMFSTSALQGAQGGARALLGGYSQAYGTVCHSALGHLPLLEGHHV

NEK2 = NEK2 (Homo sapiens, UniProt P51955)
NEK2, sequence (P51955 whole entry): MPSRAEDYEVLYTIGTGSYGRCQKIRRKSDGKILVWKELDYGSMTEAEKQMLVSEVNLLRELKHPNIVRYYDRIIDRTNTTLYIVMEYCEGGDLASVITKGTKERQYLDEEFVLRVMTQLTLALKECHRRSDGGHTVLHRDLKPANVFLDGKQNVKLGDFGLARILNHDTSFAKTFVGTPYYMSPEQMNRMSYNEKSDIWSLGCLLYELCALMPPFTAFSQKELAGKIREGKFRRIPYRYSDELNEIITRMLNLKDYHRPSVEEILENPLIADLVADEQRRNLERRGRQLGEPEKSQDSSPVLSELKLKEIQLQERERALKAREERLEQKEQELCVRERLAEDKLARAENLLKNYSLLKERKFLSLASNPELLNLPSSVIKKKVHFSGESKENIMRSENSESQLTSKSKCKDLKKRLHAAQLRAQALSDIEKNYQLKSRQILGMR

KIT(A829P) = KIT(A829P) (Homo sapiens, UniProt P10721, A829P)
HIPK1 = HIPK1 (Homo sapiens, UniProt Q86Z02)
[3] = molecular target: T5, RSK4(Kin.Dom.2-C-terminal) (Homo sapiens, UniProt Q9UK32)
T5 construct: gene RPS6KA6; Kin.Dom.2-C-terminal
T5 sequence (Q9UK32 whole entry): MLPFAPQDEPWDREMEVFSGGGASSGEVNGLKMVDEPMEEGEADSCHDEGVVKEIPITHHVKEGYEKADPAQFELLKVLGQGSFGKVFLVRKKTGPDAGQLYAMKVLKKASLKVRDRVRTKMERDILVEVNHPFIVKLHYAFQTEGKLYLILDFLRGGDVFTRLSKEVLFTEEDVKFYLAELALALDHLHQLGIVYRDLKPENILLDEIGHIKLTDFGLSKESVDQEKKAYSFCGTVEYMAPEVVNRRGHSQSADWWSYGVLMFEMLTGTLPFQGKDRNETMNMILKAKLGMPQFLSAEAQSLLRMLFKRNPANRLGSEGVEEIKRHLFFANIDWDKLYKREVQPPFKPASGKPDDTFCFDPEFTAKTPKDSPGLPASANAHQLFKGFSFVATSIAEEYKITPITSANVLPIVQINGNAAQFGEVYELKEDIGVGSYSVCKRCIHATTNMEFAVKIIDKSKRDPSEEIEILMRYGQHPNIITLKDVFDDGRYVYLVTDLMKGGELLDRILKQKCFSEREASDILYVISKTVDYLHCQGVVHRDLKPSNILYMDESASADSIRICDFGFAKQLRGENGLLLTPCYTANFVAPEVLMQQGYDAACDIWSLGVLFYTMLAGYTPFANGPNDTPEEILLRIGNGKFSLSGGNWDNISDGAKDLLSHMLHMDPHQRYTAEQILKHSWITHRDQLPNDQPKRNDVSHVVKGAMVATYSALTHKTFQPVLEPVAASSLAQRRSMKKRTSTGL

BMPR2 = BMPR2 (Homo sapiens, UniProt Q13873)
YANK2 = molecular target: T6, YANK2 (Homo sapiens, UniProt Q9NY57)
T6 construct: gene STK32B

[4] = molecular target: EGFR(L747-E749del, A750P) (Homo sapiens, UniProt P00533, A750P/DEL747-749)
PHKG1 = PHKG1 (Homo sapiens, UniProt Q16816)
AKT3 = AKT3 (Homo sapiens, UniProt Q9Y243)
AKT3, sequence (Q9Y243 whole entry): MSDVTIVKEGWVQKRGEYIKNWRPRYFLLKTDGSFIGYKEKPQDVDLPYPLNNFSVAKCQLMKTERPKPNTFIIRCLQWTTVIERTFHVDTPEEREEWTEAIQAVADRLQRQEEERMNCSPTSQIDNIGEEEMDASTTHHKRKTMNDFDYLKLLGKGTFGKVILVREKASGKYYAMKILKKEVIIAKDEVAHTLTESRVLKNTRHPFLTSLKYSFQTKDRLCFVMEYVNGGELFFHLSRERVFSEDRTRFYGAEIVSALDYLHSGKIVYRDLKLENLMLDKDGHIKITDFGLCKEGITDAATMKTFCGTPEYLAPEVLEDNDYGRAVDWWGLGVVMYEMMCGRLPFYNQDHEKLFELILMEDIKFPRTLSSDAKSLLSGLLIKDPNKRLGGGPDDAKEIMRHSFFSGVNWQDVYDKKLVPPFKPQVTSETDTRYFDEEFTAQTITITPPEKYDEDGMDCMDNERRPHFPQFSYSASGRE

PIM1 = PIM1 (Homo sapiens, UniProt P11309)
PIM1, sequence (P11309 whole entry): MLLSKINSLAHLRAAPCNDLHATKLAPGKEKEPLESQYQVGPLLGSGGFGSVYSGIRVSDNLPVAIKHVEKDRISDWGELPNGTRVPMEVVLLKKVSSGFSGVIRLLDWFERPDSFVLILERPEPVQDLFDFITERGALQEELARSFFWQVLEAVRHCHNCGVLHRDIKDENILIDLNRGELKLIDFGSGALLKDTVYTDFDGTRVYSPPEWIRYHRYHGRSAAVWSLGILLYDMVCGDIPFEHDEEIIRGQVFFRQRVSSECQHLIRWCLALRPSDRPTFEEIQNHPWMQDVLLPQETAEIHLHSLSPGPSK

[5] = molecular target: T7, ABL1(F317I)-phosphorylated (Homo sapiens, UniProt P00519, F317I)
T7 construct: phosphorylated

CTK = molecular target: T8, CTK (Homo sapiens, UniProt P42679)
T8 construct: gene MATK

PAK4 = PAK4 (Homo sapiens, UniProt O96013)

ERN1, sequence (O75460 whole entry): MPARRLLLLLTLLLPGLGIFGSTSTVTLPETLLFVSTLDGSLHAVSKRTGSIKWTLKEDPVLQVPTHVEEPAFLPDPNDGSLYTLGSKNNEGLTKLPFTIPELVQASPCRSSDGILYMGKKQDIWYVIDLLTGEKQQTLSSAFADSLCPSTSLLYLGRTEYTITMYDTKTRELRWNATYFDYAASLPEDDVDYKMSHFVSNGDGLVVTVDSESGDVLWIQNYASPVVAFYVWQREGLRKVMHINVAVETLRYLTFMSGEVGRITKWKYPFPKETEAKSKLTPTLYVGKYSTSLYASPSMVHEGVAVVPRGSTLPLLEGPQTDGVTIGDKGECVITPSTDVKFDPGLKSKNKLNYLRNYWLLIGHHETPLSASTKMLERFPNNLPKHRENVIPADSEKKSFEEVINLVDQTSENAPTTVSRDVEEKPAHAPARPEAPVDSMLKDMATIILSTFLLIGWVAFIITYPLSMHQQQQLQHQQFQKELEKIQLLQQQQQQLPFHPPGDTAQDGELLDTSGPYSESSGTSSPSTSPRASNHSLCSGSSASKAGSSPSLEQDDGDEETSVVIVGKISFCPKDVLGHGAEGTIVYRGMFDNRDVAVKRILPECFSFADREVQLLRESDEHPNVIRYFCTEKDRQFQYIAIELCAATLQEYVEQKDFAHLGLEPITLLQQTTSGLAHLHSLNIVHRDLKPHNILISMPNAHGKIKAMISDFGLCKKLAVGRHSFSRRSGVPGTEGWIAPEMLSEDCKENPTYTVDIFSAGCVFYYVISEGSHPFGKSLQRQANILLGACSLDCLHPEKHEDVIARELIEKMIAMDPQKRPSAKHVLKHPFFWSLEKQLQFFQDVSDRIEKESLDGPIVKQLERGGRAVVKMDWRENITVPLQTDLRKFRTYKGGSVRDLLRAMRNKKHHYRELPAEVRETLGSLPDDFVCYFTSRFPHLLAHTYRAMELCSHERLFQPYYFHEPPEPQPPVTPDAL
RIPK2, sequence (O43353 whole entry): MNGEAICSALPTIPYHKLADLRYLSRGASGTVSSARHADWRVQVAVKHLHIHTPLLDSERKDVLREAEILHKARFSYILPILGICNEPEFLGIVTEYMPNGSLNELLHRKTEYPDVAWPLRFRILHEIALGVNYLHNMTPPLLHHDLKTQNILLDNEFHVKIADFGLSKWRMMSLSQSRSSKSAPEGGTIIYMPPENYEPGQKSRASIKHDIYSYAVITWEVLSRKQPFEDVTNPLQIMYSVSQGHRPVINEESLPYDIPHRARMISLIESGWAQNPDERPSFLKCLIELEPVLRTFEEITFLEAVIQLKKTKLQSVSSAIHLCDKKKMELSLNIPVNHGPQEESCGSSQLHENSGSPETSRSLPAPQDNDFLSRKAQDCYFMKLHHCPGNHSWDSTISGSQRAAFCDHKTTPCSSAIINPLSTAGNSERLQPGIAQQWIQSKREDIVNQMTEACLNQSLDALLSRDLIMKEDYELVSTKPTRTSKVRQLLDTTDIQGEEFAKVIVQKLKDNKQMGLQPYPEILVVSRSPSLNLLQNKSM

| SMILES | remaining binding at 10 µM (ERN1) | remaining binding at 10 µM (RIPK2) | remaining binding at 10 µM (DAPK1) | remaining binding at 10 µM (CLK3) | remaining binding at 10 µM [1] | remaining binding at 10 µM (PYK2) | remaining binding at 10 µM [2] | remaining binding at 10 µM (CLK4) | remaining binding at 10 µM (ERK8) | remaining binding at 10 µM (NEK2) | remaining binding at 10 µM (KIT(A829P)) | remaining binding at 10 µM (HIPK1) | remaining binding at 10 µM [3] | remaining binding at 10 µM (BMPR2) | remaining binding at 10 µM (YANK2) | remaining binding at 10 µM [4] | remaining binding at 10 µM (PHKG1) | remaining binding at 10 µM (AKT3) | remaining binding at 10 µM (PIM1) | remaining binding at 10 µM [5] | other results |
| --- | --- | --- | --- | --- | --- | --- | --- | --- | --- | --- | --- | --- | --- | --- | --- | --- | --- | --- | --- | --- | --- |
| COc1ccc(-c2cnccc2-c2cnc(NC(=O)C(C)C)s2)c(C(F)(F)F)c1 [CRT0105446, N-{5-[3-(4-Methoxy-2-trifluoromethyl-phenyl)-pyridin-4-yl]-hiazol-2-yl}-isobutyramide] | 87% | 80% | 100% | 49% | 93% | 100% | 89% | 100% | 1.4% | 100% | 100% | 100% | 16% | 100% | 100% | 98% | 78% | 100% | 96% | 76% | remaining binding at 10 µM (CTK): 100%; remaining binding at 10 µM (PAK4): 82% |
| Cc1ccc(-c2cnccc2-c2cnc(Nc3ccc(O)cc3)s2)c(Cl)c1 [CRT0105950, 4-{5-[3-(2-Chloro-4-methyl-phenyl)-pyridin-4-yl]-thiazol-2-ylamino}-phenol] | 68% | 18% | 82% | 22% | 88% | 2.2% | 50% | 1.6% | 1.6% | 82% | 35% | 65% | 2.9% | 8.9% | 100% | 64% | 56% | 100% | 76% | 87% | remaining binding at 10 µM (CTK): 100%; remaining binding at 10 µM (PAK4): 79% |
